Values of other authors as cited in paper PMC5959268 (Journal of medicinal chemistry, 2016).
Counter-ions that a name gives are not always drawn. *1 amine or outer side, *2 acyl side, *3 side chain or, on linkers, in order; H or OH if unused. Where no end group is shown, it is not given here. [ ]: non-standard residue; d: D form. Tyr(125I) = tyrosine labelled with iodine-125, O=C([C@H](Cc1ccc(O[*:3])c([125I])c1)N[*:1])[*:2]

Columns and labels:
hair regrowth = settings: aging CRF-overexpressing mice
[1] = tested on: CRF-stimulated ACTH release by cultured rat anterior pituitary cells; settings: rat pituitary cells in culture and adrenalectomized rats
CRF-R1 = settings: read-out: Kd of tracer at CRF-R1; saturation binding of radioligand

| Molecule | hair regrowth (hair regrowth) | other results |
| --- | --- | --- |
| CCCCN(CC)c1nc(C)nc2c1c(C)c(C)n2-c1c(C)cc(C)cc1C [antalarmin, N-butyl-N-ethyl-2,5,6-trimethyl-7-(2,4,6-trimethylphenyl)-7H-pyrrolol[2,3-d]pyrimidin-4-amine hydrochloride] | spotty results | – |
| Nc1cc(N2CCCCC2)nc(N)[n+]1[O-] [minoxidil, 2,4-pyrimidinediamine, 6-(1-piperidinyl)-, 3-oxide] | spotty results | – |
| [D-Phe^12,Nle^21,38]-h/rCRF(12–41) | – | potency relative to α-helical-CRF(9–41) at inhibiting release of ACTH [1]: ~ 18 times |
| [^125ITyr^0-Glu^1]-PD-Svg YEGTSLDLTFDLLRHNLEIAKQEALKKQAAKNRLLLDTI-NH2 ([Tyr(125I)]EGTSLDLTFDLLRHNLEIAKQEALKKQAAKNRLLLDTI-NH2) | – | Kd (CRF-R1): 0.42 nM |
